Results published in patent US9062124B2, “GIP-based mixed agonists for treatment of metabolic disorders and obesity” (priority 2008, dated 2015).
Where a SMILES comes first, the peptide text is derived from it. Bridges are numbered along the chain shown (N, C = ends). Where no end group is shown, it is not given here. [ ]: non-standard residue; d: D form. PEG 40 kDa = PEG (40 kDa) covalently attached to Cys; Aib = CC(C)(N)C(=O)O

How the values were obtained:
Format in all cases: cell-based
GIP receptor = molecular target: T1, GIP receptor (Homo sapiens, UniProt P48546); experiment: cAMP synthesis functional assay (firefly luciferase reporter in HEK293 cells), GIP receptor; settings: Table 1; for GIP Receptor relative activity: relative to the native hormone of the indicated receptor
T1 construct: expressed in transfected cells; host or cells: HEK293
T1 sequence (P48546 22-466): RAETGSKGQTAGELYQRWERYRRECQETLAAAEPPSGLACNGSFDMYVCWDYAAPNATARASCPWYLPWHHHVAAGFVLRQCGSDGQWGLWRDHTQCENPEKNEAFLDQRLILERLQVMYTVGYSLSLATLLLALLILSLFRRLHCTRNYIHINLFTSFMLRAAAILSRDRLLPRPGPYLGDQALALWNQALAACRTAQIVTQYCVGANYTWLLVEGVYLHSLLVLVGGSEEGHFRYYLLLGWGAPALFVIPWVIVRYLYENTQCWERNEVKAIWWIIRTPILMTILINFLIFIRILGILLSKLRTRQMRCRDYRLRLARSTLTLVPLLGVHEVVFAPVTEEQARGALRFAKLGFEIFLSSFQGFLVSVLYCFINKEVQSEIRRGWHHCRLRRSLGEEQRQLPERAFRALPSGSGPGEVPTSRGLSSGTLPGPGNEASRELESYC

GLP-1 receptor = molecular target: T2, GLP-1 receptor (Homo sapiens, UniProt P43220); experiment: cAMP synthesis functional assay (firefly luciferase reporter in HEK293 cells), GLP-1 receptor; settings: for GLP-1 Receptor relative activity: Table 1, relative to the native hormone of the indicated receptor
T2 construct: expressed in transfected cells; host or cells: HEK293

glucagon receptor = molecular target: T3, glucagon receptor (Homo sapiens, UniProt P47871); experiment: cAMP synthesis functional assay (firefly luciferase reporter in HEK293 cells), glucagon receptor; settings: for Glucagon Receptor relative activity: relative to the native hormone of the indicated receptor
T3 construct: expressed in transfected cells; host or cells: HEK293

[1] = Glucagon Receptor EC50, nM, Table 1

T3 sequence (P47871 26-477): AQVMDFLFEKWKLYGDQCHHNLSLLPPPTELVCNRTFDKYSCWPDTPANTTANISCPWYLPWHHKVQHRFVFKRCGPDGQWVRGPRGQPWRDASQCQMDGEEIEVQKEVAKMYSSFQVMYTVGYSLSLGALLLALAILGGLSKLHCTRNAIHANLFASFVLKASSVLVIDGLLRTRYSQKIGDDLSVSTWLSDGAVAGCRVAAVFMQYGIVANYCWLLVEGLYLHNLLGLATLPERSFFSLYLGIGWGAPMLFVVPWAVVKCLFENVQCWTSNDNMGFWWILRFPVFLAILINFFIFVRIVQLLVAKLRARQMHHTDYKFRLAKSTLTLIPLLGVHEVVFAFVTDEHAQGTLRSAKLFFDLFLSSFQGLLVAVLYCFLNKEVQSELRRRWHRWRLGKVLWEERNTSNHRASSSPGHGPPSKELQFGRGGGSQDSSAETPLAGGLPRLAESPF
T2 sequence (P43220 24-463, species assumed): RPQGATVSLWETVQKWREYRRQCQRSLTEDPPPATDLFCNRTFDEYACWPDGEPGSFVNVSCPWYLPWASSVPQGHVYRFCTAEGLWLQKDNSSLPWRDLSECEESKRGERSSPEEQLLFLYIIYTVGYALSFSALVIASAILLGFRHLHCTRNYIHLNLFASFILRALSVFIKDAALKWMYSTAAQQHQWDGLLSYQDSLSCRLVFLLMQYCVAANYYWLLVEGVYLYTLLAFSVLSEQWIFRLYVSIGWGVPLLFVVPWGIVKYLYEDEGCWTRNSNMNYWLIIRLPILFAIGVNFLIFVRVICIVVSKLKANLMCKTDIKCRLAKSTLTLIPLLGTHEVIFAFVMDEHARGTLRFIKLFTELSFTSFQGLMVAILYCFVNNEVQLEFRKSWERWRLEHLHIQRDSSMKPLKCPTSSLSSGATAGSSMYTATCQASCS

Molecule	GIP Receptor relative activity (GIP receptor) [%]	GLP-1 Receptor relative activity (GLP-1 receptor) [%]	EC50 (glucagon receptor; [1]) [nM]	Glucagon Receptor relative activity (glucagon receptor; Table 1) [%]	EC50 (GIP receptor; GIP Receptor EC50, nM) [nM]	EC50 (GLP-1 receptor; GLP-1 Receptor EC50, cAMP luciferase reporter assay as in Example 16) [nM]	EC50 (glucagon receptor; Glucagon Receptor EC50, cAMP luciferase reporter assay as in Example 16) [nM]
CC[C@H](C)[C@H](NC(=O)[C@H](Cc1ccccc1)NC(=O)[C@H](CCC(=O)O)NC(=O)[C@@H]1CCCCNC(=O)CC[C@H](NC(=O)[C@H](CC(=O)O)NC(=O)[C@H](CC(C)C)NC(=O)[C@H](Cc2ccc(O)cc2)NC(=O)[C@H](CCCCN)NC(=O)[C@H](CO)NC(=O)[C@H](Cc2ccc(O)cc2)NC(=O)[C@H](CC(=O)O)NC(=O)[C@H](CO)NC(=O)[C@@H](NC(=O)[C@H](Cc2ccccc2)NC(=O)[C@@H](NC(=O)CNC(=O)[C@H](CCC(N)=O)NC(=O)[C@H](CO)NC(=O)[C@@H](N)Cc2c[nH]cn2)[C@@H](C)O)[C@@H](C)O)C(=O)N[C@@H]([C@@H](C)CC)C(=O)N[C@@H](Cc2c[nH]cn2)C(=O)N[C@@H](CCC(N)=O)C(=O)N1)C(=O)N[C@@H](C)C(=O)N[C@@H](Cc1c[nH]c2ccccc12)C(=O)N[C@@H](CC(C)C)C(=O)N[C@@H](CCSC)C(=O)N[C@@H](CC(N)=O)C(=O)N[C@H](C(N)=O)[C@@H](C)O [mt-61]	0.83	22.22	0.11	172.73	–	–	–
CC[C@H](C)[C@H](NC(=O)[C@H](Cc1ccccc1)NC(=O)[C@H](CCC(=O)O)NC(=O)[C@@H]1CCCCNC(=O)CC[C@H](NC(=O)[C@H](CC(=O)O)NC(=O)[C@H](CC(C)C)NC(=O)[C@H](Cc2ccc(O)cc2)NC(=O)[C@@H](NC(=O)[C@H](CO)NC(=O)[C@H](Cc2ccc(O)cc2)NC(=O)[C@H](CC(=O)O)NC(=O)[C@H](CO)NC(=O)[C@@H](NC(=O)[C@H](Cc2ccccc2)NC(=O)[C@@H](NC(=O)CNC(=O)[C@H](CCC(N)=O)NC(=O)[C@H](CO)NC(=O)[C@@H](N)Cc2c[nH]cn2)[C@@H](C)O)[C@@H](C)O)[C@@H](C)CC)C(=O)N[C@@H]([C@@H](C)CC)C(=O)N[C@@H](Cc2c[nH]cn2)C(=O)N[C@@H](CCC(N)=O)C(=O)N1)C(=O)N[C@@H](C)C(=O)N[C@@H](Cc1c[nH]c2ccccc12)C(=O)N[C@@H](CC(C)C)C(=O)N[C@@H](CCSC)C(=O)N[C@@H](CC(N)=O)C(=O)N[C@H](C(N)=O)[C@@H](C)O [mt-62] (H-HSQGTFTSDYSIYLDEIHQKEFIAWLMNT-NH2; lactam 16-20; N-terminus assumed)	1.60	40.00	0.45	42.22	–	–	–
CC[C@H](C)[C@H](NC(=O)[C@H](Cc1ccccc1)NC(=O)[C@H](CCC(=O)O)NC(=O)[C@@H]1CCC(=O)NCCCC[C@H](NC(=O)[C@H](CC(=O)O)NC(=O)[C@H](CC(C)C)NC(=O)[C@H](Cc2ccc(O)cc2)NC(=O)[C@H](CCCCN)NC(=O)[C@H](CO)NC(=O)[C@H](Cc2ccc(O)cc2)NC(=O)[C@H](CC(=O)O)NC(=O)[C@H](CO)NC(=O)[C@@H](NC(=O)[C@H](Cc2ccccc2)NC(=O)[C@@H](NC(=O)CNC(=O)[C@H](CCC(N)=O)NC(=O)[C@H](CO)NC(=O)[C@@H](N)Cc2c[nH]cn2)[C@@H](C)O)[C@@H](C)O)C(=O)N[C@@H]([C@@H](C)CC)C(=O)N[C@@H](Cc2c[nH]cn2)C(=O)N[C@@H](CCC(N)=O)C(=O)N1)C(=O)N[C@@H](C)C(=O)N[C@@H](Cc1c[nH]c2ccccc12)C(=O)N[C@@H](CC(C)C)C(=O)N[C@@H](CCSC)C(=O)N[C@@H](CC(N)=O)C(=O)N[C@H](C(N)=O)[C@@H](C)O [mt-69] (H-HSQGTFTSDYSKYLDKIHQEEFIAWLMNT-NH2; lactam 16-20; N-terminus assumed)	0.57	12.20	0.16	162.50	14.6	–	–
CC[C@H](C)[C@H](NC(=O)[C@H](CO)NC(=O)[C@H](Cc1ccc(O)cc1)NC(=O)[C@H](CC(=O)O)NC(=O)[C@H](CO)NC(=O)[C@@H](NC(=O)[C@H](Cc1ccccc1)NC(=O)[C@@H](NC(=O)CNC(=O)[C@H](CCC(=O)O)NC(=O)[C@H](C)NC(=O)[C@@H](N)Cc1ccc(O)cc1)[C@@H](C)O)[C@@H](C)O)C(=O)N[C@@H](Cc1ccc(O)cc1)C(=O)N[C@@H](CCSC)C(=O)N[C@@H](CC(=O)O)C(=O)N[C@H]1CCC(=O)NCCCC[C@@H](C(=O)N[C@@H](CCC(=O)O)C(=O)N[C@@H](Cc2ccccc2)C(=O)N[C@H](C(=O)N[C@@H](CC(N)=O)C(=O)N[C@@H](Cc2c[nH]c3ccccc23)C(=O)N[C@@H](CC(C)C)C(=O)N[C@@H](CC(C)C)C(=O)N[C@@H](C)C(=O)NCC(=O)NCC(=O)N2CCC[C@H]2C(=O)N[C@@H](CO)C(=O)N[C@@H](CO)C(=O)NCC(=O)N[C@@H](C)C(=O)N2CCC[C@H]2C(=O)N2CCC[C@H]2C(=O)N2CCC[C@H]2C(=O)N[C@@H](CO)C(N)=O)C(C)C)NC(=O)[C@H](C)NC(=O)[C@H](C)NC(=O)[C@H](CCC(N)=O)NC1=O [mt-142] (H-YAEGTFTSDYSIYMDEQAAKEFVNWLLAGGPSSGAPPPS-NH2; lactam 16-20; N-terminus assumed)	36.36	163.41	–	–	–	–	–
CC[C@H](C)[C@H](NC(=O)[C@H](CO)NC(=O)[C@H](Cc1ccc(O)cc1)NC(=O)[C@H](CC(=O)O)NC(=O)[C@H](CO)NC(=O)[C@@H](NC(=O)[C@H](Cc1ccccc1)NC(=O)[C@@H](NC(=O)CN)[C@@H](C)O)[C@@H](C)O)C(=O)N[C@@H](Cc1ccc(O)cc1)C(=O)N[C@@H](CC(C)C)C(=O)N[C@@H](CC(=O)O)C(=O)N[C@H]1CCC(=O)NCCCC[C@@H](C(=O)N[C@@H](CCC(=O)O)C(=O)N[C@@H](Cc2ccccc2)C(=O)N[C@H](C(=O)N[C@@H](CC(N)=O)C(=O)N[C@@H](Cc2c[nH]c3ccccc23)C(=O)N[C@@H](CC(C)C)C(=O)N[C@@H](CC(C)C)C(=O)N[C@@H](C)C(=O)NCC(N)=O)C(C)C)NC(=O)[C@H](C)NC(=O)[C@H](C)NC(=O)[C@H](CCC(N)=O)NC1=O [mt-197] (H-GTFTSDYSIYLDEQAAKEFVNWLLAG-NH2; lactam 13-17; N-terminus assumed)	–	0.07	–	0.13	–	–	–
CC[C@H](C)[C@H](NC(=O)[C@H](CO)NC(=O)[C@H](Cc1ccc(O)cc1)NC(=O)[C@H](CC(=O)O)NC(=O)[C@H](CO)NC(=O)[C@@H](NC(=O)[C@H](Cc1ccccc1)NC(=O)[C@@H](NC(=O)CNC(=O)[C@H](CCC(=O)O)NC(=O)C(C)(C)NC(=O)[C@@H](N)Cc1ccc(O)cc1)[C@@H](C)O)[C@@H](C)O)C(=O)N[C@@H](Cc1ccc(O)cc1)C(=O)N[C@@H](CC(C)C)C(=O)N[C@@H](CC(=O)O)C(=O)N[C@@H](CCCCN)C(=O)N[C@@H](CCC(N)=O)C(=O)N[C@@H](C)C(=O)N[C@@H](C)C(=O)NC(C)(C)C(=O)N[C@@H](CCC(=O)O)C(=O)N[C@@H](Cc1ccccc1)C(=O)N[C@H](C(=O)N[C@@H](CCCCN)C(=O)N[C@@H](Cc1c[nH]c2ccccc12)C(=O)N[C@@H](CC(C)C)C(=O)N[C@@H](CC(C)C)C(=O)N[C@@H](C)C(=O)NCC(=O)NCC(=O)N1CCC[C@H]1C(=O)N[C@@H](CO)C(=O)N[C@@H](CO)C(=O)NCC(=O)N[C@@H](C)C(=O)N1CCC[C@H]1C(=O)N1CCC[C@H]1C(=O)N1CCC[C@H]1C(=O)N[C@@H](CO)C(N)=O)C(C)C [mt-268]	–	–	–	–	–	0.0155	6.5
HSQGTFTSDYSKYLDEIHQKEFIAWLLAQ-NH2 [mt-66]	–	38.46	–	13.00	–	–	–
HSQGTFTSDYSKYLDKIHQEEFIAWLMNT-NH2 [mt-68]	–	6.10	1.97	13.20	–	–	–
YAEGTFISDYSIAMDKIHQQDFVNWLLAQ-NH2 [mt-106]	–	0.02	–	0.11	–	–	–
YAPGTFISDYSIAMDKIHQQDFVCWLLAQKGKKNWLKHNITQ-NH2 [mt-104]	0.22	–	–	–	–	–	–
YAPGTFISDYSIAMDKIHQQDFVNWLLAQKGKKNWLKHNITQ-NH2 [mt-101]	0.06	–	–	–	–	–	–
mt-208: glucagon analog peptide, C-terminal amide (Y[Aib]EGTFTSDYSIYLDEQAAKEFVNWLLAGKGKKNWLKHNITQC(PEG 40 kDa)-NH2; lactam 16-20)	4.79	11.83	–	–	–	–	–
